The values below come from US11857519B2, “Compounds and methods for the targeted degradation of enhancer of zeste homolog 2 polypeptide” (Arvinas Operations, Inc., priority 2016, dated 2024).

In the test the target is T1, EZH2 (Homo sapiens, UniProt Q15910).
T1 construct: Protocol of the Cellular Assay of Target Protein Degradation (VCaP Cells, ELISA); endogenous in cells; host or cells: VCaP cells
Kind of test: Cellular assay of target protein degradation (VCaP cells, ELISA). The conditions noted are these: 4 hours, protein degradation range at indicated concentration (relative to DMSO control). In kind it is cell-based. Summed up: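 EZH2 level measured by sandwich ELISA (TMB, A450 minus A562 background) in lysates of VCaP cells. Cells had been cultured at least 3 days in 5% CSS RPMI before 4 h compound exposure in 0.1% DMSO.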

T1 sequence (Q15910 whole entry): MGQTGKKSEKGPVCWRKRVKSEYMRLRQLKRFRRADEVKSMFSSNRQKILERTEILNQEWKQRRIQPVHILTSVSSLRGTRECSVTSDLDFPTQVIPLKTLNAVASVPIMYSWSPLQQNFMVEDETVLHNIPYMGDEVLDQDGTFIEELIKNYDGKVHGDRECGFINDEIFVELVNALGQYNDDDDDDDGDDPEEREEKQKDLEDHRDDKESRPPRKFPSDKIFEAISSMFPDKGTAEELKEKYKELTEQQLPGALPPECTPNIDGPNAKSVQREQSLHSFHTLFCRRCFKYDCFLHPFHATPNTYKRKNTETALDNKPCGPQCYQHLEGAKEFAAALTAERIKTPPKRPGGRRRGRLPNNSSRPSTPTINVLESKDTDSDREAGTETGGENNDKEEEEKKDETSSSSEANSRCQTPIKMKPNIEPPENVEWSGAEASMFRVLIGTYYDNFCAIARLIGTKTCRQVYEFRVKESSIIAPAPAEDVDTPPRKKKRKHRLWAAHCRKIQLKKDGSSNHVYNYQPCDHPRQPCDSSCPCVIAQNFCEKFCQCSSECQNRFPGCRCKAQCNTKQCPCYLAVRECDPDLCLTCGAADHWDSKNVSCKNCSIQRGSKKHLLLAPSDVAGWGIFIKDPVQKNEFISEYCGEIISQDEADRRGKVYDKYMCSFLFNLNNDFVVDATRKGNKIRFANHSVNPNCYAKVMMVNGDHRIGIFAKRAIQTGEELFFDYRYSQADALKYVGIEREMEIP
T1 sequence (O75530 whole entry partner): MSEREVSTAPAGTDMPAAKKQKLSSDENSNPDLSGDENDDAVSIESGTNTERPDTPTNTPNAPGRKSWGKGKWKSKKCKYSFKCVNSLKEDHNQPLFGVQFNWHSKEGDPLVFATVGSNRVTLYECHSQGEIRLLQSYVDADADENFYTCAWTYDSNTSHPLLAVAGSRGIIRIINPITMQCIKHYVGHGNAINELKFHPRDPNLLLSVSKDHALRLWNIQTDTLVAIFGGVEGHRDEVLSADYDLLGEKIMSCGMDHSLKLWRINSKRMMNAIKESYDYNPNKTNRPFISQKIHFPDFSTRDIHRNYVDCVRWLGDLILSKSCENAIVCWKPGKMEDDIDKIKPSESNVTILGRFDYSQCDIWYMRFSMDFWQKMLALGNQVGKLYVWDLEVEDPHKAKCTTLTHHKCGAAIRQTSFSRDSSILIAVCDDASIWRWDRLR
T1 sequence (Q15022 whole entry partner): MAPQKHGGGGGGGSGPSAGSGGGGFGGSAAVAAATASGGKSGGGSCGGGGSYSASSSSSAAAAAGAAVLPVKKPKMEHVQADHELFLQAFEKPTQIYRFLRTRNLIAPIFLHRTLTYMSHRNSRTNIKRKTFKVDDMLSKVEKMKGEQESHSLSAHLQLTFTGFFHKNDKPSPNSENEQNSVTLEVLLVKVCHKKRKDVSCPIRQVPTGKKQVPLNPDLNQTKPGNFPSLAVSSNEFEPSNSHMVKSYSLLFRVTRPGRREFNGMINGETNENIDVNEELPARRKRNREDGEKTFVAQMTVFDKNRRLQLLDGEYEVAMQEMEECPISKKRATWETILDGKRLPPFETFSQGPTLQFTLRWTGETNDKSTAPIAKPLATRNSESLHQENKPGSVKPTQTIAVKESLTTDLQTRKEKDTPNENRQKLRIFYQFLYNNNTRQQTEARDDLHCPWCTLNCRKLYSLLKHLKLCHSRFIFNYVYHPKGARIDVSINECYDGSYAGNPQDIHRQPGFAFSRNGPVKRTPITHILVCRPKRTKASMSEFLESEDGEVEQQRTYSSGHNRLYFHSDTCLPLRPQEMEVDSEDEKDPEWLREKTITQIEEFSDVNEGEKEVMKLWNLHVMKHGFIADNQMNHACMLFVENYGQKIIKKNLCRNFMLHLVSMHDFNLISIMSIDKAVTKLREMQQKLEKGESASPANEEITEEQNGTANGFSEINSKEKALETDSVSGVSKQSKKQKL

As to `CCN(c1cc(-c2ccc(OCCCCCOCC(=O)N[C@H](C(=O)N3C[C@H](O)C[C@H]3C(=O)N[C@@H](C)c3ccc(-c4scnc4C)cc3)C(C)(C)C)cc2)cc(C(=O)NCc2c(C)cc(C)[nH]c2=O)c1C)C1CCOCC1` [Compound 94, (2S,4R)-1-((S)-2-(2-((5-((3′-(((4,6-dimethyl-2-oxo-1,2-dihydropyridin-3-yl)methyl)carbamoyl)-5′-(ethyl(tetrahydro-2H-pyran-4-yl)amino)-4′-methyl-[1,1′-biphenyl]-4-yl)oxy)pentyl)oxy)acetamido)-3,3-dimethylbutanoyl)-4-hydroxy-N-((S)-1-(4-(4-methylthiazol-5-yl)phenyl)ethyl)pyrrolidine-2-carboxamide], the “percent target protein degradation class” value was “A (A = degradation more than 60%)”.

As for `CCN(c1cc(-c2ccc(OCCCOCC(=O)N[C@H](C(=O)N3C[C@H](O)C[C@H]3C(=O)N[C@@H](C)c3ccc(-c4scnc4C)cc3)C(C)(C)C)cc2)cc(C(=O)NCc2c(C)cc(C)[nH]c2=O)c1C)C1CCOCC1` [Compound 95, (2S,4R)-1-((S)-2-(2-(3-((3′-(((4,6-dimethyl-2-oxo-1,2-dihydropyridin-3-yl)methyl)carbamoyl)-5′-(ethyl(tetrahydro-2H-pyran-4-yl)amino)-4′-methyl-[1,1′-biphenyl]-4-yl)oxy)propoxy)acetamido)-3,3-dimethylbutanoyl)-4-hydroxy-N-((S)-1-(4-(4-methylthiazol-5-yl)phenyl)ethyl)pyrrolidine-2-carboxamide], the “percent target protein degradation class” value was “A (A = degradation more than 60%)”. With `CCN(c1cc(-c2ccc(OCCOCCOCC(=O)N[C@H](C(=O)N3C[C@@H](O)C[C@@H]3C(=O)N[C@@H](C)c3ccc(-c4scnc4C)cc3)C(C)(C)C)cc2)cc(C(=O)NCc2c(C)cc(C)[nH]c2=O)c1C)C1CCOCC1` [Compound 96, (2R,4S)-1-((S)-2-(2-(2-(2-((3′-(((4,6-dimethyl-2-oxo-1,2-dihydropyridin-3-yl)methyl)carbamoyl)-5′-(ethyl(tetrahydro-2H-pyran-4-yl)amino)-4′-methyl-[1,1′-biphenyl]-4-yl)oxy)ethoxy)ethoxy)acetamido)-3,3-dimethylbutanoyl)-4-hydroxy-N-((S)-1-(4-(4-methylthiazol-5-yl)phenyl)ethyl)pyrrolidine-2-carboxamide] the entry was “B (B = degradation between 30% and 60%)”; with `CCN(c1cc(-c2ccc(OCCCOc3ccc4c(c3)C(=O)N([C@@H](C(=O)N3C[C@H](O)C[C@H]3C(=O)N[C@@H](C)c3ccc(-c5scnc5C)cc3)C(C)C)C4)cc2)cc(C(=O)NCc2c(C)cc(C)[nH]c2=O)c1C)C1CCOCC1` [Compound 97, (2S,4R)-1-((R)-2-(6-(3-((3′-(((4,6-dimethyl-2-oxo-1,2-dihydropyridin-3-yl)methyl)carbamoyl)-5′-(ethyl(tetrahydro-2H-pyran-4-yl)amino)-4′-methyl-[1,1′-biphenyl]-4-yl)oxy)propoxy)-1-oxoisoindolin-2-yl)-3-methylbutanoyl)-4-hydroxy-N-((S)-1-(4-(4-methylthiazol-5-yl)phenyl)ethyl)pyrrolidine-2-carboxamide], “B (B = degradation between 30% and 60%)”.

As to `CCN(c1cc(-c2ccc(OCCCOc3ccc4c(c3)C(=O)N([C@H](C(=O)N3C[C@H](O)C[C@H]3C(=O)N[C@@H](C)c3ccc(-c5scnc5C)cc3)C(C)C)C4)cc2)cc(C(=O)NCc2c(C)cc(C)[nH]c2=O)c1C)C1CCOCC1` [Compound 98, (2S,4R)-1-((S)-2-(6-(3-((3′-(((4,6-dimethyl-2-oxo-1,2-dihydropyridin-3-yl)methyl)carbamoyl)-5′-(ethyl(tetrahydro-2H-pyran-4-yl)amino)-4′-methyl-[1,1′-biphenyl]-4-yl)oxy)propoxy)-1-oxoisoindolin-2-yl)-3-methylbutanoyl)-4-hydroxy-N-((S)-1-(4-(4-methylthiazol-5-yl)phenyl)ethyl)pyrrolidine-2-carboxamide], the “percent target protein degradation class” value was “B (B = degradation between 30% and 60%)”. In the case of `CCN(c1cc(-c2ccc(COCCOc3ccc4c(c3)C(=O)N([C@H](C(=O)N3C[C@H](O)C[C@H]3C(=O)N[C@@H](C)c3ccc(-c5scnc5C)cc3)C(C)C)C4)cc2)cc(C(=O)NCc2c(C)cc(C)[nH]c2=O)c1C)C1CCOCC1` [Compound 99, (2S,4R)-1-((S)-2-(6-(2-((3′-((4,6-dimethyl-2-oxo-1,2-dihydropyridin-3-yl)methylcarbamoyl)-5′-(ethyl(tetrahydro-2H-pyran-4-yl)amino)-4′-methylbiphenyl-4-yl)methoxy)ethoxy)-1-oxoisoindolin-2-yl)-3-methylbutanoyl)-4-hydroxy-N—((S)-1-(4-(4-methylthiazol-5-yl)phenyl)ethyl)pyrrolidine-2-carboxamide], the “percent target protein degradation class” value is given as “A (A = degradation more than 60%)”. With `CCN(c1cc(-c2ccc(OCCOc3ccc4c(c3)C(=O)N([C@H](C(=O)N3C[C@H](O)C[C@H]3C(=O)N[C@@H](C)c3ccc(-c5scnc5C)cc3)C(C)C)C4)cc2)cc(C(=O)NCc2c(C)cc(C)[nH]c2=O)c1C)C1CCOCC1` [Compound 100] the entry was “A (A = degradation more than 60%)”; with `CCN(c1cc(-c2ccc(OCCCCOc3ccc4c(c3)C(=O)N([C@@H](C(=O)N3C[C@H](O)C[C@H]3C(=O)N[C@@H](C)c3ccc(-c5scnc5C)cc3)C(C)C)C4)cc2)cc(C(=O)NCc2c(C)cc(C)[nH]c2=O)c1C)C1CCOCC1` [Compound 101, (2S,4R)-1-((R)-2-(6-(4-((3′-(((4,6-dimethyl-2-oxo-1,2-dihydropyridin-3-yl)methyl)carbamoyl)-5′-(ethyl(tetrahydro-2H-pyran-4-yl)amino)-4′-methyl-[1,1′-biphenyl]-4-yl)oxy)butoxy)-1-oxoisoindolin-2-yl)-3-methylbutanoyl)-4-hydroxy-N-((S)-1-(4-(4-methylthiazol-5-yl)phenyl)ethyl)pyrrolidine-2-carboxamide], “B (B = degradation between 30% and 60%)”. `CCN(c1cc(-c2ccc(OCCCCOc3ccc4c(c3)C(=O)N([C@H](C(=O)N3C[C@H](O)C[C@H]3C(=O)N[C@@H](C)c3ccc(-c5scnc5C)cc3)C(C)C)C4)cc2)cc(C(=O)NCc2c(C)cc(C)[nH]c2=O)c1C)C1CCOCC1` [Compound 102]: the “percent target protein degradation class” value is “B (B = degradation between 30% and 60%)”. Consider `CCN(c1cc(-c2ccc(OCCCCOc3ccc4c(c3)C(=O)N(C(C(=O)N3C[C@H](O)C[C@H]3C(=O)N[C@@H](C)c3ccc(-c5scnc5C)cc3)C(C)C)C4)cc2)cc(C(=O)NCc2c(C)cc(C)[nH]c2=O)c1C)C1CCOCC1` (stereo partly drawn) [Compound 103, (2S,4R)-1-(2-(6-(4-((3′-(((4,6-dimethyl-2-oxo-1,2-dihydropyridin-3-yl)methyl)carbamoyl)-5′-(ethyl(tetrahydro-2H-pyran-4-yl)amino)-4′-methyl-[1,1′-biphenyl]-4-yl)oxy)butoxy)-1-oxoisoindolin-2-yl)-3-methylbutanoyl)-4-hydroxy-N-((S)-1-(4-(4-methylthiazol-5-yl)phenyl)ethyl)pyrrolidine-2-carboxamide], for which the “percent target protein degradation class” value is “B (B = degradation between 30% and 60%)”.

As to `CCN(c1cc(-c2ccc(OCCCCCOc3cc(C(C(=O)N4C[C@H](O)C[C@H]4C(=O)N[C@@H](C)c4ccc(-c5scnc5C)cc4)C(C)C)on3)cc2)cc(C(=O)NCc2c(C)cc(C)[nH]c2=O)c1C)C1CCOCC1` (stereo partly drawn) [Compound 104, (2S,4R)-1-(2-(3-(5-(3′-((4,6-dimethyl-2-oxo-1,2-dihydropyridin-3-yl)methylcarbamoyl)-5′-(ethyl(tetrahydro-2H-pyran-4-yl)amino)-4′-methylbiphenyl-4-yloxy)pentyloxy)isoxazol-5-yl)-3-methylbutanoyl)-4-hydroxy-N—((S)-1-(4-(4-methylthiazol-5-yl)phenyl)ethyl)pyrrolidine-2-carboxamide], the “percent target protein degradation class” value is reported as “A (A = degradation more than 60%)”. As to `CCN(c1cc(-c2ccc(OCCOCCOc3cc(C(C(=O)N4C[C@H](O)C[C@H]4C(=O)N[C@@H](C)c4ccc(-c5scnc5C)cc4)C(C)C)on3)cc2)cc(C(=O)NCc2c(C)cc(C)[nH]c2=O)c1C)C1CCOCC1` (some centres unmarked) [Compound 105], the “percent target protein degradation class” value is “A (A = degradation more than 60%)”. Regarding `CCN(c1cc(-c2ccc(OCCCCCCOc3cc(C(C(=O)N4C[C@H](O)C[C@H]4C(=O)N[C@@H](C)c4ccc(-c5scnc5C)cc4)C(C)C)on3)cc2)cc(C(=O)NCc2c(C)cc(C)[nH]c2=O)c1C)C1CCOCC1` (stereo partly drawn) [Compound 106, (2S,4R)-1-(2-(3-((6-((3′-(((4,6-dimethyl-2-oxo-1,2-dihydropyridin-3-yl)methyl)carbamoyl)-5′-(ethyl(tetrahydro-2H-pyran-4-yl)amino)-4′-methyl-[1,1′-biphenyl]-4-yl)oxy)hexyl)oxy)isoxazol-5-yl)-3-methylbutanoyl)-4-hydroxy-N-((S)-1-(4-(4-methylthiazol-5-yl)phenyl)ethyl)pyrrolidine-2-carboxamide], the “percent target protein degradation class” value was “A (A = degradation more than 60%)”. As to `CCN(c1cc(-c2ccc(OCCCCOc3cc(C(C(=O)N4C[C@H](O)C[C@H]4C(=O)N[C@@H](C)c4ccc(-c5scnc5C)cc4)C(C)C)on3)cc2)cc(C(=O)NCc2c(C)cc(C)[nH]c2=O)c1C)C1CCOCC1` (stereo partly drawn) [Compound 107, (2S,4R)-1-(2-(3-(4-(3′-((4,6-dimethyl-2-oxo-1,2-dihydropyridin-3-yl)methylcarbamoyl)-5′-(ethyl(tetrahydro-2H-pyran-4-yl)amino)-4′-methylbiphenyl-4-yloxy)butoxy)isoxazol-5-yl)-3-methylbutanoyl)-4-hydroxy-N—((S)-1-(4-(4-methylthiazol-5-yl)phenyl)ethyl)pyrrolidine-2-carboxamide], the “percent target protein degradation class” value is recorded as “A (A = degradation more than 60%)”.
